The source of these data is paper PMC11745346 (Proceedings of the National Academy of Sciences of the …, 2024).

Usually EC50 stands for the midpoint of the concentration-response curve.

The target in the assay is Kv1.1 (Homo sapiens, UniProt Q09470). The assay is described as follows: two-electrode voltage clamp in Xenopus oocytes, reference opener. The class given is cell-based.
Chain of Kv1.1 (Q09470 whole entry): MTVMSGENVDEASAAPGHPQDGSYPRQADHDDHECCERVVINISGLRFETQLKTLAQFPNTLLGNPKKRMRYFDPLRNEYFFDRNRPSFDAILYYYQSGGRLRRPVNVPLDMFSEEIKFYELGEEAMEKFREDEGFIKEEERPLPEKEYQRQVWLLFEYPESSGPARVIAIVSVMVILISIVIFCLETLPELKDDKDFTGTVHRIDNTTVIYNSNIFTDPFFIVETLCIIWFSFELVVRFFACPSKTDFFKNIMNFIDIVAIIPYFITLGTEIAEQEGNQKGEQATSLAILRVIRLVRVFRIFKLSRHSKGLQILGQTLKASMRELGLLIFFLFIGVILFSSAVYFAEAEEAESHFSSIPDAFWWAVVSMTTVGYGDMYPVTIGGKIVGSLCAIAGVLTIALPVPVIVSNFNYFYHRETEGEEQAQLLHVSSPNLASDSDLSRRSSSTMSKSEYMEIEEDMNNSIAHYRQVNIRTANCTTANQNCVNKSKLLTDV

Take `O=C(O)c1cccnc1Nc1cccc(C(F)(F)F)c1` [niflumic acid]: the EC50 is 347 µM.
